Test results as given in patent US10544130B2, “Metallo-beta-lactamase inhibitors” (priority 2015, dated 2020).

These molecules were tested on Pseudomonas aeruginosa PAO1 MB9798 (efflux+, IMP-1). Settings: ratio MITC95 PA 9798/MITC95 PA 9799; imipenem at 2 μg/mL.
Summary of the method: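 Isogenic PAO1 pair (efflux+ MB9798, efflux− MB9799, both IMP-1) tested by microbroth MIC with fixed imipenem and/or ceftazidime, usually at CLSI breakpoint, plus fixed class A/C inhibitor against AmpC. MBL inhibitor titrated; concentration restoring susceptibility recorded and fold difference between strains taken as efflux extent.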
With `Nc1nc(-c2cccc(-c3ccc(S(=O)(=O)N[C@@H]4CCNC4)c(S(N)(=O)=O)c3-c3nn[nH]n3)c2)n[nH]1` [Example 231, (R)-3′-(5-amino-1H-1,2,4-triazol-3-yl)-N4-(pyrrolidin-3-yl)-2-(2H-tetrazol-5-yl)-[1,1′-biphenyl]-3,4-disulfonamide] the Efflux ratio was 1.00. With `CN1CC[C@@H](NS(=O)(=O)c2ccc(-c3cccc4[nH]c(N)nc34)c(-c3nn[nH]n3)c2S(N)(=O)=O)C1` [Example 232, (R)-4-(2-amino-1H-benzo[d]imidazol-4-yl)-N^1-(1-methylpyrrolidin-3-yl)-3-(2H-tetrazol-5-yl)benzene-1,2-disulfonamide] the Efflux ratio was 2.00. `C[N+]1(C)CC[C@@H](NS(=O)(=O)c2ccc(-c3cccc4[nH]c(N)nc34)c(-c3nn[nH]n3)c2S(N)(=O)=O)C1.[Cl-]` [Example 233, (R)-3-((4-(2-amino-1H-benzo[d]imidazol-4-yl)-2-sulfamoyl-3-(2H-tetrazol-5-yl)phenyl)sulfonamido)-1,1-dimethylpyrrolidin-1-ium chloride] gave an Efflux ratio of 1.00. Work on `Nc1nc2c(-c3ccc(S(=O)(=O)N[C@@H]4CCNC4)c(S(N)(=O)=O)c3-c3nn[nH]n3)cc(I)cc2[nH]1` [Example 234, (R)-4-(2-amino-6-iodo-1H-benzo[d]imidazol-4-yl)-N^1-(pyrrolidin-3-yl)-3-(2H-tetrazol-5-yl)benzene-1,2-disulfonamide] yielded an Efflux ratio of 1.00. `NS(=O)(=O)c1c(S(=O)(=O)N[C@@H]2CCNC2)ccc(-c2cccc3[nH]nnc23)c1-c1nn[nH]n1` [Example 235, (R)-4-(1H-benzo[d][1,2,3]triazol-4-yl)-N^1-(pyrrolidin-3-yl)-3-(2H-tetrazol-5-yl)benzene-1,2-disulfonamide] gave an Efflux ratio of 0.50. Work on `NCCNS(=O)(=O)c1ccc(-c2cccc3[nH]nnc23)c(-c2nn[nH]n2)c1S(N)(=O)=O` [Example 236, N^1-(2-aminoethyl)-4-(1H-benzo[d][1,2,3]triazol-4-yl)-3-(2H-tetrazol-5-yl)benzene-1,2-disulfonamide] yielded an Efflux ratio of 1.00. `C[C@H](CN)NS(=O)(=O)c1ccc(-c2cccc3[nH]nnc23)c(-c2nn[nH]n2)c1S(N)(=O)=O` [Example 237, (R)-N^1-(1-aminopropan-2-yl)-4-(1H-benzo[d][1,2,3]triazol-4-yl)-3-(2H-tetrazol-5-yl)benzene-1,2-disulfonamide] was tested, and the Efflux ratio was 0.50. Molecule `NS(=O)(=O)c1c(S(=O)(=O)N[C@@H]2CCNC2)ccc(-c2cccc3nonc23)c1-c1nn[nH]n1` [Example 238, (R)-4-(benzo[c][1,2,5]oxadiazol-4-yl)-N^1-(pyrrolidin-3-yl)-3-(2H-tetrazol-5-yl)benzene-1,2-disulfonamide] has an Efflux ratio of 4.00. For `NCCNS(=O)(=O)c1ccc(-c2cccc3nonc23)c(-c2nn[nH]n2)c1S(N)(=O)=O` [Example 239, N^1-(2-aminoethyl)-4-(benzo[c][1,2,5]oxadiazol-4-yl)-3-(2H-tetrazol-5-yl)benzene-1,2-disulfonamide], the Efflux ratio was 8.00. Work on `Nc1nc2c(-c3ccc(S(=O)(=O)N[C@H]4CNC[C@H]4N)c(S(N)(=O)=O)c3-c3nn[nH]n3)cccc2[nH]1` [Example 241, 4-(2-amino-1H-benzo[d]imidazol-4-yl)-N^1-((3S,4R)-4-aminopyrrolidin-3-yl)-3-(2H-tetrazol-5-yl)benzene-1,2-disulfonamide] yielded an Efflux ratio of 0.83. `CNc1ccc(-c2ccc(S(=O)(=O)NCCN)c(S(N)(=O)=O)c2-c2nn[nH]n2)cn1` [Example 243, N^1-(2-aminoethyl)-4-(6-(methylamino)pyridin-3-yl)-3-(2H-tetrazol-5-yl)benzene-1,2-disulfonamide] gave an Efflux ratio of 1.00. Molecule `Nc1nc2c(-c3ccc(S(=O)(=O)NC4CNC4)c(S(N)(=O)=O)c3-c3nn[nH]n3)cccc2[nH]1` [Example 252, 4-(2-amino-1H-benzo[d]imidazol-4-yl)-N1-(azetidin-3-yl)-3-(2H-tetrazol-5-yl)benzene-1,2-disulfonamide] has an Efflux ratio of 0.68. With `Cc1ccc(-c2ccc(S(=O)(=O)N[C@@H]3CCNC3)c(S(N)(=O)=O)c2-c2nn[nH]n2)c2nc(N)[nH]c12` [Example 285, (R)-4-(2-amino-7-methyl-1H-benzo[d]imidazol-4-yl)-N1-(pyrrolidin-3-yl)-3-(2H-tetrazol-5-yl)benzene-1,2-disulfonamide] the Efflux ratio was 1.00. `N[C@H](CO)CNS(=O)(=O)c1ccc(-c2cccc3[nH]cnc23)c(-c2nn[nH]n2)c1S(N)(=O)=O` [Example 296, (S)—N^1-(2-amino-3-hydroxypropyl)-4-(1H-benzo[d]imidazol-4-yl)-3-(2H-tetrazol-5-yl)benzene-1,2-disulfonamide] was tested, and the Efflux ratio was 1.00. Molecule `NC[C@@H](O)CNS(=O)(=O)c1ccc(-c2cccc3[nH]c(N)nc23)c(-c2nn[nH]n2)c1S(N)(=O)=O` [Example 298, (R)-4-(2-amino-1H-benzo[d]imidazol-4-yl)-N1-(3-amino-2-hydroxypropyl)-3-(2H-tetrazol-5-yl)-benzene-1,2-disulfonamide] has an Efflux ratio of 0.69. Molecule `NCc1nc2c(-c3ccc(S(=O)(=O)NC[C@H](O)CN)c(S(N)(=O)=O)c3-c3nn[nH]n3)cccc2s1` [Example 300, (R)—N1-(3-amino-2-hydroxypropyl)-4-(2-(aminomethyl)benzo[d]thiazol-4-yl)-3-(2H-tetrazol-5-yl)benzene-1,2-disulfonamide] has an Efflux ratio of 1.00. Molecule `NC[C@@H](O)CNS(=O)(=O)c1ccc(-c2cccc3[nH]cnc23)c(-c2nn[nH]n2)c1S(N)(=O)=O` [Example 301, (R)-4-(1H-benzo[d]imidazol-4-yl)-N1-(3-amino-2-hydroxypropyl)-3-(2H-tetrazol-5-yl)-benzene-1,2-disulfonamide] has an Efflux ratio of 1.00. `NC[C@@H](O)CNS(=O)(=O)c1ccc(-c2ccc(N)nc2)c(-c2nn[nH]n2)c1S(N)(=O)=O` [Example 303, (R)-N1-(3-amino-2-hydroxypropyl)-4-(6-aminopyridin-3-yl)-3-(2H-tetrazol-5-yl)benzene-1,2-disulfonamide] showed an Efflux ratio of 1.00. Work on `NCc1nc2c(-c3ccc(S(=O)(=O)NC[C@@H](O)CN)c(S(N)(=O)=O)c3-c3nn[nH]n3)cccc2[nH]1` [Example 305, (S)—N1-(3-amino-2-hydroxypropyl)-4-(2-(aminomethyl)-1H-benzo[d]imidazole-4-yl)-3-(2H-tetrazol-5-yl)benzene-1,2-disulfonamide] yielded an Efflux ratio of 1.00. In the case of `NC[C@H](O)CNS(=O)(=O)c1ccc(-c2cccc3[nH]cnc23)c(-c2nn[nH]n2)c1S(N)(=O)=O` [Example 307, (S)-4-(1H-benzo[d]imidazol-4-yl)-N1-(3-amino-2-hydroxypropyl)-3-(2H-tetrazol-5-yl)-benzene-1,2-disulfonamide], the Efflux ratio is reported as 1.00. For `NC[C@H](O)CNS(=O)(=O)c1ccc(-c2ccc(N)nc2)c(-c2nn[nH]n2)c1S(N)(=O)=O` [Example 309, (S)-N1-(3-amino-2-hydroxypropyl)-4-(6-aminopyridin-3-yl)-3-(2H-tetrazol-5-yl)benzene-1,2-disulfonamide], the Efflux ratio was 1.00. Molecule `Nc1ccc(-c2ccc(S(=O)(=O)NC[C@@H]3CNCCN3)c(S(N)(=O)=O)c2-c2nn[nH]n2)cn1` [Example 312, (S)-4-(6-aminopyridin-3-yl)-N1-(piperazin-2-ylmethyl)-3-(2H-tetrazol-5-yl)benzene-1,2-disulfonamide] has an Efflux ratio of 1.00.
